# Laboratory results from patent publication US6831196B2, “Urokinase inhibitors” (Curacyte AG, priority 2000, dated 2004).
# pKi: −log10 of the molar value. Structures can show the parent of a compound that is named as a salt.
# Target: sc-urokinase (Homo sapiens, UniProt P00749)
# Assay: Inhibiting urokinase: chromogenic substrate Bz-βAla-Gly-Arg-pNA, Ki by Dixon
# Assay type: biochemical
# Settings: 25° C., pH 8.0, mean of at least three determinations
# From the text: Inhibiting urokinase with selected compounds in which Y=amidino
# Determining the inhibitory effect:
# The Ki values are the mean of at least three determinations.
row,SMILES,pKi
1,"N=C(N)c1cccc(CNC(=O)CNC(=O)[C@@H](COCc2ccccc2)NS(=O)(=O)Cc2ccccc2)c1 [Bz—SO2, D, CH2—O—Bz, H, CH2, 3]",< 3.00
2,"N=C(N)c1ccc(CNC(=O)CNC(=O)[C@@H](COCc2ccccc2)NS(=O)(=O)Cc2ccccc2)cc1 [Bz—SO2, D, CH2—O—Bz, H, CH2, 4, Benzylsulfonyl-D-Ser(Bz)-Gly-4-amidinobenzyl-amide×TFA]",6.08
3,"CC(C)(C)OC(=O)N[C@@H](CO)C(=O)NCC(=O)NCc1ccc(C(=N)N)cc1 [Boc, L, CH2—OH, H, CH2, 4]",4.64
4,"CC(C)(C)OC(=O)N[C@H](COCc1ccccc1)C(=O)NCC(=O)NCc1cccc(C(=N)N)c1 [Boc, D, CH2—O—Bz, H, CH2, 3]",< 3.00

# Results, then the compound that gave them:
row,pKi,SMILES
1,6.30,"CC(C)COC(=O)OC[C@@H](NS(=O)(=O)Cc1ccccc1)C(=O)NCC(=O)NCc1ccc(C(=N)N)cc1 [Bz—SO2, D, CH2—O—COO-iBu, H, CH2, 4, Benzylsulfonyl-D-Ser(COO-isobutyl)-Gly-4-amidino-benzylamide×HCl]"
2,6.41,"COC(=O)OC[C@@H](NS(=O)(=O)Cc1ccccc1)C(=O)NCC(=O)NCc1ccc(C(=N)N)cc1 [Bz—SO2, D, CH2—O—COO—CH3, H, CH2, 4]"
3,4.92,"N=C(N)c1ccc(CNC(=O)CNC(=O)[C@H](N)CO)cc1 [H, D, CH2—OH, H, CH2, 4]"
4,< 3.00,"N=C(N)c1cccc(CNC(=O)CNC(=O)[C@H](N)COCc2ccccc2)c1 [H, D, CH2—O—Bz, H, CH2, 3]"
5,7.32,"N=C(N)c1ccc(CNC(=O)CNC(=O)[C@@H](CO)NS(=O)(=O)CC2CCCCC2)cc1 [CMe—SO2, D, CH2—OH, H, CH2, 4]"
6,4.68,"N=C(N)c1ccc(CNC(=O)CNC(=O)[C@@H](N)CO)cc1 [H, L, CH2—OH, H, CH2, 4]"
